Key:
[1] = system: transformed BJ fibroblasts; test: Methylene blue viability, transformed BJ fibroblasts; format: cell-based, human; details: up to 100 μM, 72 hours, 2% fetal bovine serum
Protocol: (§1) For the high-throughput screens, relative cell number was determined using a CellTiter-Glo® Luminescent Cell Viability Assay as described hereinabove. Otherwise, relative cell numbers were determined by fixating the cells with 0.5% glutardialdehyde and staining with methylene blue dissolved in 0.1 M boric acid (pH 8.5). Color extraction was performed using 0.1 M hydrochloric acid, and the staining (which is proportional to cell number) was quantified by measuring absorbance at a wavelength of 650 nm.
(§2) In one experiment, immortalized BJ fibroblasts served as differentiated cells and were compared with BJ fibroblasts induced to undergo cellular transformation, which served as their undifferentiated cancerous counterparts. […]
(§3) The differentiated and undifferentiated cells were exposed to PluriSIn #1 at concentrations of up to 100 μM for 72 hours under low (2%) fetal bovine serum conditions. Their viability was then measured using a methylene blue viability assay, as described hereinabove.

[2] = system: non-pluripotent cell types (BJ-fibroblasts, HeLa, HepG2 and Kelly cells); test: Methylene blue viability of non-pluripotent cells in embryonic stem cell medium; format: cell-based, human; details: 20 μM, 72 hours
Protocol: as §1
In order to ascertain that the selectivity of PluriSin cytotoxicity is cell type-dependent rather than cell medium-dependent, four non-pluripotent cell types (BJ-fibroblasts, HeLa, HepG2 and Kelly cells) were cultured in human embryonic stem cell medium and exposed to PluriSIn #1 for 72 hours. Cell viability was then determined by a methylene blue assay, as described hereinabove.

[3] = system: caspase-3 in embryonic stem cells; test: Immunoblotting for caspase-3; format: cell-based, human; details: 20 μM
Protocol: For immunoblotting, 10% polyacrylamide gel was used for protein separation and detection. The gel was transferred to a nitrocellulose membrane and antibody hybridization and chemiluminescence were performed according to standard procedures. The primary antibodies in this analysis were rabbit anti-phosphorylated-eIF2a (1:250, Cell Signaling Technology), rabbit anti caspase-3 (1:1,000, Cell Signaling Technology), mouse anti β-catenin (1:10,000, BD Biosciences) and mouse anti-α-tubulin (1:50,000, Sigma-Aldrich). Horseradish peroxidase-conjugated anti-rabbit and anti-mouse secondary antibodies were obtained from Jackson Immunoresearch Laboratories.
The finding of gene expression associated with apoptosis is consistent with previous reports that pluripotent cells are prone to apoptosis [Qin et al., Journal of Biological Chemistry 282:5842-5852 (2007); Momcilovic et al., PloS One 5:e13410 (2010)]. However, pluripotent cells have also been reported to be susceptible to other types of cell death, such as oncosis [Tan et al., Stem Cells 27:1792-1801 (2009)] and autophagy [Alexander et al., PNAS 108:15828-15833 (2011)]. An Annexin V-FITC detection assay and immunoblotting for caspase-3 (a hallmark executioner of apoptosis) were therefore used in order to confirm that the massive hPSC death induced by PluriSIn #1 is indeed apoptosis.

[4] = system: OCT4-expressing CSES2-SO2/3 cells; test: Fluorescence microscopy imaging of OCT4 in mixed cell populations; format: cell-based, human; details: 48 hours, mixed cell population
Protocol: High content imaging of CSES2-SO2/3 fluorescent cells (mCherry+ or EGFP+) was performed in black clear-bottom 384-well assay plates (Falcon BD), using the Opera high-content screen imaging platform (PerkinElmer). Otherwise, light and fluorescence imaging of all cells was performed in 24-well, 6-well or 10 cm CELLSTAR® plates (Greiner Bio-One), using an Olympus CellR imaging station. Light imaging of developing mouse embryos was performed in 35 mm culture dishes (Falcon BD), using an Olympus IX70 microscope.
(§4) Mixed cell populations were cultured in 6-well plates and exposed to PluriSIn #1 for 48 hours. The cells were then analyzed by FACS analysis, using staining for the pluripotent marker TRA-1-60, and by fluorescence microscopy imaging of OCT4, as described in the Materials and Methods section.

[5] = system: pluripotent cells in mixed cell population (differentiated and undifferentiated CSES2-SO2/3 cells); test: FACS analysis of TRA-1-60 in mixed cell populations; format: cell-based, human; details: 48 hours, 6-well plates
Protocol: For quantification of remaining undifferentiated cells after treatment, cells were treated with 20 μM PluriSIn #1 (isonicotinic acid N′-phenylhydrazide) for 48 hours or 72 hours, dissociated using TrypLE™ Select (Invitrogen), and washed with PBS supplemented with 10% FBS and 0.05% sodium azide. Dissociated cells were suspended to a final concentration of 10^6 cells/ml. Cells were incubated on ice with TRA1-60-PE antibody (1:40, BD Biosciences), washed and analyzed using LSR II FACS (BD Biosciences) with FCS Express software (De Novo Software, Los Angeles, Calif.).
as §4

H9 stem cells = test: Elimination of undifferentiated cells cultured in 6-well plates; format: cell-based, human; details: 20 μM
Description: The PluriSIns were first tested in various culture conditions and exposure durations.

differentiated SLGCs = test: Methylene blue viability, differentiated SLGCs; format: cell-based; details: up to 100 μM, 72 hours, 2% fetal bovine serum
Protocol: as §1
(§5) In a second experiment, undifferentiated stem-like glioma cells (SLGCs) were compared with SLGCs differentiated by monolayer adhesion and exposure to 1 μM retinoic acid for one week, in accordance with procedures described by Campos et al. [Clinical Cancer Research 16:2715-2728 (2010)]. Differentiation of SLGCs is associated with a reduction in tumorigenicity [Campos et al., Clinical Cancer Research 16:2715-2728 (2010)].
as §3

[6] = system: normal (immortalized) BJ fibroblasts; test: Methylene blue viability, immortalized BJ fibroblasts; format: cell-based, human; details: up to 100 μM, 72 hours, 2% fetal bovine serum
Protocol: as §1, §2, §3

[7] = system: undifferentiated stem-like glioma cells (SLGCs); test: Methylene blue viability, undifferentiated SLGCs; format: cell-based; details: up to 100 μM, 72 hours, 2% fetal bovine serum
Protocol: as §1, §5, §3

hPSCs = test: hPSC viability after SCD1 inhibitors with or without oleic acid; format: cell-based, human; details: 75 nM inhibitor, 100 μM oleic acid, 48 hours
Protocol: (§6) In order to determine whether hPSC viability indeed depends on functional SCD1 activity, hPSCs were exposed to 75 nM of the specific SCD1 inhibitors A939572 and CAY-10566 for 48 hours. Some samples were supplemented with 100 μM oleic acid in order to evaluate the effect of exogenous supplementation of oleic acid (a product of SCD1 activity) on cell death.

[8] = as above; format: cell-based, human; details: human, human pluripotent stem cells (hPSCs), 75 nM, read-out: decrease in viability of hPSCs
Protocol: as §6

SMILES | cytotoxicity towards transformed BJ fibroblasts [1] | viability of non-pluripotent cells cultured in embryonic stem cell medium [2] | activation of caspase-3 [3] | elimination of OCT4-expressing cells [4] | pluripotent cells eliminated from culture (TRA-1-60 FACS) [5] | exposure required for complete elimination of undifferentiated cells (H9 stem cells) [h] | effect on differentiated SLGCs (differentiated SLGCs) | effect on normal (immortalized) BJ fibroblasts [6] | cytotoxicity towards undifferentiated SLGC [7] | rescue from SCD1 inhibitor-induced cell death by oleic acid (hPSCs) | cytotoxicity at 48 h, 75 nM [8] [%]
O=C(NNc1ccccc1)c1ccncc1 [PluriSIn #1, isonicotinic acid N′-phenylhydrazide] | highly cytotoxic | no effect | enhanced activation of caspase-3 | eliminated almost all OCT4-expressing cells | over 99% | 48 | no apparent effect | little effect | highly cytotoxic |  | 
CNC(=O)c1cccc(NC(=O)N2CCC(Oc3ccccc3Cl)CC2)c1 [A939572, 4-(2-chlorophenoxy)-N-(3-(methylcarbamoyl)-phenyl)piperidine-1-carboxamide, reference compound] |  |  |  |  |  |  |  |  |  | completely rescued | > 80

— patent US20180153830A1, “SELECTIVE INHIBITORS OF UNDIFFERENTIATED CELLS” (Yissum Research Development Company of the Hebrew …, priority 2012, published 2018)
